Results on 27 compounds are retold here after US8815882B2, “Pyrazole aminopyrimidine derivatives as LRRK2 modulators” (Genentech, Inc., priority 2010, dated 2014).

pKi: −log10 of the molar value.

In the first test the target is T1, LRRK2 (Homo sapiens, UniProt Q5S007, G2019S).
T1 construct: purchased Invitrogen PV4882 (lot 567054A)
T1 sequence (Q5S007 whole entry G2019S): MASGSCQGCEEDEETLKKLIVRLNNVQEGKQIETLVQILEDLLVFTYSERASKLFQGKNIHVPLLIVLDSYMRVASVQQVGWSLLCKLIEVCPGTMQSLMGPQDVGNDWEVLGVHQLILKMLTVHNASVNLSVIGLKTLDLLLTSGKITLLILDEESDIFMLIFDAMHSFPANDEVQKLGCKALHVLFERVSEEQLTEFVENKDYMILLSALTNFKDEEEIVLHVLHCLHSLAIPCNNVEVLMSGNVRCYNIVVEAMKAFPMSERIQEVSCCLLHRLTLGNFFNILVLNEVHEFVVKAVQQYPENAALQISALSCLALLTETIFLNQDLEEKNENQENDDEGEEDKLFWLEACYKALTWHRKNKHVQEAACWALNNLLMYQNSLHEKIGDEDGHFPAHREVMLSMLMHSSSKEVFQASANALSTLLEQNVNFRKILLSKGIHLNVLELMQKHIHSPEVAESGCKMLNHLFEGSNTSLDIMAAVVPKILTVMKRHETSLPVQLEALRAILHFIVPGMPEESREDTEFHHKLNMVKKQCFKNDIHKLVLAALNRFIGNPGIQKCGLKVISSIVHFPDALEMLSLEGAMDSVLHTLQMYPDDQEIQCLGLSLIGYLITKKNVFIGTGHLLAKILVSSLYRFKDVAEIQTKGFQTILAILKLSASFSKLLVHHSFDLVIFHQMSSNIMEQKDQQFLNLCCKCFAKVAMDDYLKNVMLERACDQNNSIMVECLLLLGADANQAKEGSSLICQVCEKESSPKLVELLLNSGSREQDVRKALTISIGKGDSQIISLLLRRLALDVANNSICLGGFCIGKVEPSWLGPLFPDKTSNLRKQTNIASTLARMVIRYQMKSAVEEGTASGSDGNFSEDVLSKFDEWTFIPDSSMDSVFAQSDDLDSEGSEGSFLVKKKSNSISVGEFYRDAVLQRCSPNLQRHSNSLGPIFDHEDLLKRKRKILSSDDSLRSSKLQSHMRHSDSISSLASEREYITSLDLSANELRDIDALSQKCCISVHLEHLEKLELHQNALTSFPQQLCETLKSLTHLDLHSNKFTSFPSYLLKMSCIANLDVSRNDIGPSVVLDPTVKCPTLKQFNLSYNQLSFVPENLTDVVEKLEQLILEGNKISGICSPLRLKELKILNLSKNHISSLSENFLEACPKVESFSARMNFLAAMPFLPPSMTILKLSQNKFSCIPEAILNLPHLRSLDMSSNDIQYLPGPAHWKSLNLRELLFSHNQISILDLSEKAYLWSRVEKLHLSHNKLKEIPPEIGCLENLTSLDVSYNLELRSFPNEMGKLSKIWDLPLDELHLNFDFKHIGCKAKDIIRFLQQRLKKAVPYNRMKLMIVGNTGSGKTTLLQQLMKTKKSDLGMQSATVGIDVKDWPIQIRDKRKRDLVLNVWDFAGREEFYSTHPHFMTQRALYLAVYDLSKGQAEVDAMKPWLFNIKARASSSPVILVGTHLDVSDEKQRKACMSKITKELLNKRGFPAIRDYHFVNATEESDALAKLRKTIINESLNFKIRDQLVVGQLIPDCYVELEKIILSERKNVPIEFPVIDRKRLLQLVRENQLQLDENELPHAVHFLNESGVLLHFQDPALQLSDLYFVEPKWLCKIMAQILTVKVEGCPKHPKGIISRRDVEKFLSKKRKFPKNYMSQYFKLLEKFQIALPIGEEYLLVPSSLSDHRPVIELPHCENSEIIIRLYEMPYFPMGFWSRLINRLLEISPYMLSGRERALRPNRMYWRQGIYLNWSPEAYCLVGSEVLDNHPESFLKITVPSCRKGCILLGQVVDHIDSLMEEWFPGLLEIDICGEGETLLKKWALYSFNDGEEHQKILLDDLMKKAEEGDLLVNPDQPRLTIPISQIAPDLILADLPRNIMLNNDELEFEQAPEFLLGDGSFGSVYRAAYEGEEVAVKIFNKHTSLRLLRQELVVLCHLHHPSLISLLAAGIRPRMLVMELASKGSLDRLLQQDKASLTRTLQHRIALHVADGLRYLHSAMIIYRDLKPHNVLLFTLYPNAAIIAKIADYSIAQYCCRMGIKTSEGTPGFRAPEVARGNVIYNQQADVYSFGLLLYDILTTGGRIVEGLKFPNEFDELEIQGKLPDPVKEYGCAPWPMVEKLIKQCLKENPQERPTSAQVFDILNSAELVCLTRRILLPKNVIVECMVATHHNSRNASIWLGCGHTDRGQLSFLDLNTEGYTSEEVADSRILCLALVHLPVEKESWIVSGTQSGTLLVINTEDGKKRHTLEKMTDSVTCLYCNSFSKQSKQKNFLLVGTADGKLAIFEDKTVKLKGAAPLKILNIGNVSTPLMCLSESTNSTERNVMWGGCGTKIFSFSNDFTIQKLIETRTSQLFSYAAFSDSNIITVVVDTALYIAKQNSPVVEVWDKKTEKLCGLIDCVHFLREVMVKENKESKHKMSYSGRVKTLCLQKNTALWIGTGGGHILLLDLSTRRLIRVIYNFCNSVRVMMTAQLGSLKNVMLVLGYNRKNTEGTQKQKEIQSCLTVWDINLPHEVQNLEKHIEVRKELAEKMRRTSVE
The test can be described thus: In Vitro LRRK2 Assay (LabChip 3000, fluorescently-labeled peptide substrate, ATP). It counts as biochemical. The note with it: Table 9; LRRK2 Ki (micromolar); read-out: LRRK2 Ki (KI). In short, it runs like this:
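Read-out was LabChip capillary electrophoresis, resolving phospho- from non-phospho-peptide by fluorescence intensity. The kinase reaction combined enzyme, ATP, test compound and labeled peptide (4 μM working dilution) for 2 h in darkness before stop solution. Values were reported as Ki, from a tight-binding model with Et, S and Km, or as IC50 or percent inhibition.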
As for `CCNc1nc(Nc2cnn(C3CCOCC3)c2C)ncc1C#N` [Example 371, 4-(ethylamino)-2-(5-methyl-1-(tetrahydro-2H-pyran-4-yl)-1H-pyrazol-4-ylamino) pyrimidine-5-carbonitrile], the negative logarithm of the Ki (pKi) – broadly, −log10 of the Ki, conventionally taken in molar units – was 8.28. As to `CNc1nc(Nc2cnn(C3CCN(CC(F)(F)F)CC3)c2C)ncc1C#N` [Example 356, 2-(5-methyl-1-(1-(2,2,2-trifluoroethyl)piperidin-4-yl)-1H-pyrazol-4-ylamino)-4-(methylamino) pyrimidine-5-carbonitrile], the pKi was 7.65. Same read-out and setting: the result for `CCn1cc(Nc2ncc(C#N)c(NC)n2)c(C)n1` [Example 353, 2-(1-ethyl-3-methyl-1H-pyrazol-4-ylamino)-4-(methylamino) pyrimidine-5-carbonitrile] reads 7.44; that for `CNc1nc(Nc2cn(C(F)F)nc2C)ncc1C#N` [Example 365, 2-(1-(difluoromethyl)-3-methyl-1H-pyrazol-4-ylamino)-4-(methylamino) pyrimidine-5-carbonitrile], 7.46. The same measure, in the same setting: the result for `CNc1nc(Nc2cnn(C(F)F)c2C)ncc1C#N` [Example 384, 2-(1-Difluoromethyl-5-methyl-1H-pyrazol-4-ylamino)-4-methylamino-pyrimidine-5-carbonitrile] reads 7.72; that for `Cc1c(Nc2ncc(C#N)c(OCC(F)F)n2)cnn1C` [Example 391, 4-(2,2-Difluoro-ethoxy)-2-(1,5-dimethyl-1H-pyrazol-4-ylamino)-pyrimidine-5-carbonitrile], 6.68.

The test is the same for the next values; noted with them: Table 10; LRRK2 Ki (micromolar); read-out: LRRK2 Ki (KI).
Consider `CNc1nc(Nc2cn(C(C)(C)C(=O)OC)nc2C)ncc1C(F)(F)F` [Example 408, methyl 2-methyl-2-(3-methyl-4-(4-(methylamino)-5-(trifluoromethyl)pyrimidin-2-ylamino)-1H-pyrazol-1-yl)propanoate], for which the negative logarithm of the Ki (pKi) is 8.33. Still for that read-out and setting: to `CNc1nc(Nc2cnn(C(C)(C)C#N)c2Cl)ncc1C(F)(F)F` [Example 418, 2-(5-chloro-4-(4-(methylamino)-5-(trifluoromethyl)pyrimidin-2-ylamino)-1H-pyrazol-1-yl)-2-methylpropanenitrile] belongs 8.72; to `CNc1nc(Nc2cnn([C@@H](C)C(=O)N3CCCC3)c2C)ncc1C(F)(F)F` [Example 413, (S)-2-(5-methyl-4-(4-(methylamino)-5-(trifluoromethyl)pyrimidin-2-ylamino)-1H-pyrazol-1-yl)-1-(pyrrolidin-1-yl)propan-1-one], 7.40.

The test is the same for the next values; noted with them: read-out: LRRK2 Ki (KI), Table 7.
Consider `COc1nc(Nc2cnn(-c3ccccc3)c2C)ncc1C(F)(F)F` [Example 78, (4-Methoxy-5-trifluoromethyl-pyrimidin-2-yl)-(5-methyl-1-phenyl-1H-pyrazol-4-yl)-amine], for which the pKi is 7.42. On the same count and under the same terms, to `COc1nc(Nc2cnn(C)c2C)ncc1Cl` [Example 12, 5-Chloro-N-(1,5-dimethyl-1H-pyrazol-4-yl)-4-methoxy-pyrimidin-2-amine] belongs 8.04.

As to `COc1nc(Nc2cn(-c3ccccc3)nc2C)ncc1Cl` [Example 76, (5-Chloro-4-methoxy-pyrimidin-2-yl)-(3-methyl-1-phenyl-1H-pyrazol-4-yl)-amine], the negative logarithm of the Ki (pKi) was 8.64.

The test is the same for the next values; noted with them: read-out: LRRK2 Ki (KI), Table 8.
Take `CNc1nc(Nc2cn(CC(C)(C)C#N)nc2Cl)ncc1C(F)(F)F` [Example 326, 3-[3-Chloro-4-(4-methylamino-5-trifluoromethyl-pyrimidin-2-ylamino)-pyrazol-1-yl]-2,2-dimethyl-propionitrile]: the pKi is 8.09.

Take `CCn1ncc(Nc2ncc(C(F)(F)F)c(NC)n2)c1Cl` [Example 139, N2-(5-chloro-1-ethyl-1H-pyrazol-4-yl)-N4-methyl-5-(trifluoromethyl) pyrimidine-2,4-diamine]: the pKi was 8.70. Consider `Cc1nc(Nc2cn(-c3ccc(S(C)(=O)=O)cc3)nc2C)ncc1Cl` [Example 173, 5-chloro-4-methyl-N-(3-methyl-1-(4-(methylsulfonyl)phenyl)-1H-pyrazol-4-yl)pyrimidin-2-amine], for which the negative logarithm of the Ki (pKi) was 6.32.

As for `Cc1nn(S(C)(=O)=O)cc1Nc1ncc(C(F)(F)F)c(NC2CC2)n1` [Example 300, N4-Cyclopropyl-N2-(1-methanesulfonyl-3-methyl-1H-pyrazol-4-yl)-5-trifluoromethyl-pyrimidine-2,4-diamine], the pKi is 9.40. Consider `CNc1nc(Nc2ccnn2C)ncc1Br` [Example 99, 5-bromo-N4-methyl-N2-(1-methyl-1H-pyrazol-5-yl)pyrimidine-2,4-diamine], for which the pKi is 8.27.

For the compound `CNc1nc(Nc2cn(C(C)(C)c3ccnn3C)nc2C)ncc1C(F)(F)F` [Example 344, N4-methyl-N2-(3-methyl-1-(2-(1-methyl-1H-pyrazol-5-yl)propan-2-yl)-1H-pyrazol-4-yl)-5-(trifluoromethyl) pyrimidine-2,4-diamine], the negative logarithm of the Ki (pKi) was 8.85. The same measure, in the same setting: to `CNc1nc(Nc2cn([C@@H]3CCN(C)C3)nc2C)ncc1C(F)(F)F` [Example 233, (R)-N4-methyl-N2-(3-methyl-1-(1-methylpyrrolidin-3-yl)-1H-pyrazol-4-yl)-5-(trifluoromethyl) pyrimidine-2,4-diamine] belongs 7.21; to `CCNc1nc(Nc2cn(C3CCN(C(=O)C4CC4)CC3)nc2C)ncc1C(F)(F)F` [Example 183, cyclopropyl(4-(4-(4-(ethylamino)-5-(trifluoromethyl)pyrimidin-2-ylamino)-3-methyl-1H-pyrazol-1-yl)piperidin-1-yl)methanone], 9.22; to `CNc1nc(Nc2cnn(C(F)F)c2C)ncc1Br` [Example 255, 5-Bromo-N2-(1-difluoromethyl-5-methyl-1H-pyrazol-4-yl)-N4-methyl-pyrimidine-2,4-diamine], 9.15. On to `CNc1nc(Nc2cn(C3CCN(C)CC3)nc2C)ncc1C(F)(F)F` [Example 209, N4-methyl-N2-(3-methyl-1-(1-methylpiperidin-4-yl)-1H-pyrazol-4-yl)-5-(trifluoromethyl) pyrimidine-2,4-diamine], for which the pKi is 7.39.

For `CNc1nc(Nc2cn(C)nc2C2CC2)ncc1C(F)(F)F` [Example 177, N2-(3-cyclopropyl-1-methyl-1H-pyrazol-4-yl)-N4-methyl-5-(trifluoromethyl) pyrimidine-2,4-diamine], the pKi was 8.17. On the same count and under the same terms, to `CCNc1nc(Nc2cnn(C)c2C)ncc1C(F)(F)F` [Example 261, N2-(1,5-Dimethyl-1H-pyrazol-4-yl)-N4-ethyl-5-trifluoromethyl-pyrimidine-2,4-diamine] belongs 8.89; to `CNc1nc(Nc2cn(C(C)c3ccccn3)nc2C)ncc1C(F)(F)F` (stereo not drawn) [Example 224, N4-methyl-N2-(3-methyl-1-(1-(pyridin-2-yl)ethyl)-1H-pyrazol-4-yl)-5-(trifluoromethyl) pyrimidine-2,4-diamine], 8.62. On the same count and under the same terms, the result for `CNc1nc(Nc2cnn(C3CCN(C(=O)C4CC4)CC3)c2C)ncc1C(F)(F)F` [Example 135, cyclopropyl(4-(5-methyl-4-(4-(methylamino)-5-(trifluoromethyl)pyrimidin-2-ylamino)-1H-pyrazol-1-yl)piperidin-1-yl)methanone] reads 9.00; that for `CCNc1nc(Nc2cn(C3CCN(C(C)=O)CC3)nc2C)ncc1C(F)(F)F` [Example 134, 1-(4-(4-(4-(ethylamino)-5-(trifluoromethyl)pyrimidin-2-ylamino)-3-methyl-1H-pyrazol-1-yl)piperidin-1-yl)ethanone], 8.66.
